Reference: article PMC10753699, “Synthesis of Some New 1,3,4-Oxadiazole Derivatives and Evaluation of Their Anticancer Activity” (ACS Omega, 2023)

Experiments:
MMP-9 enzyme = molecular target: T1, MMP-9 enzyme (Homo sapiens, UniProt P14780); experiment: MMP-9 colorimetric inhibition assay; type: biochemical; conditions: for inhibition at 100 µg/mL: at 100 μg/mL
T1 construct: purchased EnzoLife Sciences Inc. (Farmingdale, New York, NY, USA)
Source text: As described in our previous study,[36] the method was applied in exactly the same manner. EnzoLife Sciences Inc. provided MMP-9 colorimetric kits (Farmingdale, New York, NY, USA). The MMP Colorimetric Drug Discovery Kits are a comprehensive test technique that uses a thiopeptide (Ac-PLG-[2-mercapto-4-methyl-pentanoyl]-LG-OC2H5) as a chromogenic substrate to screen MMP inhibitors. Using a microplate reader (BioTek, PowerWave, Gen5 software, Winooski, VT, USA) at room temperature, the UV absorbance was measured at 412 nm. NNGH was employed as an inhibitor of control.

A549 cells [1] = experiment: Mitochondrial membrane depolarization (JC-1, flow cytometry); type: cell-based, human; conditions: A549, IC50 concentration, 24 h
Method: Staining of cells with JC-1 was realized according to the manufacturer’s recommendations of BD, Pharmingen Flow cytometry kit. […] For this purpose, cells were seeded at an optimal density in six-well plates (not exceeding 1 × 10^6/mL cells). The cells were then incubated with the substances to be tested at the appropriate concentration and time. After the treatment, each cell suspension was taken into a 15 mL polystyrene centrifuge tube and the cells were centrifuged at 400g for 5 min and removed from the supernatant. 0.5 mL of a freshly prepared working solution was added to each pellet, and the solution was vortexed. The test cells were soaked in a JC-1 working solution at 37 °C for 10–15 min, and the cells were washed twice. In the first wash, 2 mL of 1X assay buffer was added and the cells were suspended sensitively. Then, the cells were centrifuged at 400g for 5 min and the supernatant was removed, carefully. In the second wash, 1 mL of 1X assay buffer was added and vortexed. After the cells were centrifuged at 400g for 5 min, each cell pellet was suspended in 0.5 mL 1X assay buffer and vortexed. Finally, the cell was analyzed by a flow cytometer.

[2] = test system: A549 human lung cancer cell line; experiment: MTT cell viability / cytotoxicity on A549; type: cell-based; conditions: for IC50: MTT, mean ± S.D. of three determinations; for SI (L929/A549): selectivity index = IC50 on normal cells/IC50 on cancer cells
Method: (§1) In 75 cm^2 sterile plastic tissue culture flasks, the human lung adenocarcinoma A549 and the mouse fibroblast L929 cell lines were cultured in 90% RPMI (Sigma, Deisenhofen, Germany) media supplemented with 10% (v/v) FBS (Gibco, Paisley, UK) and adherent monolayers of penicillin/streptomycin (100 units/mL) from Gibco, Paisley, UK. These cells were cultured at 37 °C in an environment that was humidified and contained 5% CO2.
(§2) The MTT (3-(4,5-dimethylthiazol-2-yl)-2,5-diphenyltetrazolium bromide) method was applicated to assess the cell viability of L929, C6 and A549 cell lines against the tested compounds according to the reported data.[51] In 96-well plates with a flat bottom, the A549, C6, and L929 cells were cultivated at a density of 5 × 10^3 cells per well. […] After addition, they were incubated for a full day in culture wells. Following the incubation period, 20 μL of phosphate-buffered saline (PBS) (Gibco, Paisley, UK) containing 5 mg/mL MTT powder (Sigma-Aldrich, St. Louis, MO, USA) was added to each well. The medium was taken out of the plate and replaced with 100 μL of DMSO in each well to dissolve the dye. This was left for 2 to 4 h under the same conditions and then left for 10 min. At the conclusion of the procedure, purple formazan, the reduction product of the MTT agent, was formed by the mitochondrial dehydrogenase enzyme of intact cells. A microtiter plate reader (BioTek Plate Reader, Winooski, VT, USA) was used to measure the cells at 540 nm. Cell viability was measured as a percentage and contrasted with that of the cells in the control group. Half-maximal inhibitory concentration 50 (IC50) values were determined by repeating each concentration in three wells and identifying the drug concentrations that decreased the absorbance to 50% of control values. The medium control served as the basis for calculating the percentage of viable cells.

A549 cells [3] = experiment: Cell cycle analysis by flow cytometry; type: cell-based, human; conditions: A549, 24 h incubation
Method: Following a 24 h incubation period with the compounds, a cell cycle analysis measurement methodology was implemented in compliance with the manufacturer’s instructions for A549 cells (BD, Biosciences). Next, the cells were immersed in citrate buffer for a short while. At room temperature, the cells were centrifuged for 5 min at 400 g. After the supernatant was decanted, 250 μL of solution A was added to the pellet, and it was allowed to sit at room temperature for 10 min. Solution B (200 μL) was then added, carefully mixed, and incubated at room temperature for 10 min. Solution C (200 μL) was then added. It was gently mixed, allowed to stand at 4 °C for 10 min in the dark, and then examined using BD Bioscience’s MODFID software on a flow cytometer. This method was applied in our previous study.[54]

A549 cells [4] = experiment: Early/late apoptosis by Annexin V-FITC/PI flow cytometry; type: cell-based, human; conditions: A549, IC50 dose, 24 h incubation
Method: Phosphatidylserine externalization, a marker of early apoptosis, was assessed using the FITC Annexin V apoptosis detection kit (BD Pharmingen, San Jose, CA, USA) on a BD FACSAria flow cytometer. Following their collection, the A549 and L929 cells were twice washed in ice-cold PBS before being resuspended in 100 μL of binding buffer. The cells were treated with a volume of 5 μL (5 μg/mL) of Annexin V-FITC and PI, and they were incubated for 15 min at room temperature (20–25 °C) in the dark. Following that, 400 μL of binding buffer was added to the combination samples, and FACSDiva version 6.1.1 was used to analyze the samples on a BD FACSAria flow cytometer.

caspase-3 = experiment: Caspase-3 activation in A549 cells; type: cell-based, human; conditions: A549, IC50 of the compounds, 24 h
Method: The Spectrofluorometric Caspase-3 Assay kit (BD Pharmingen, Franklin Lakes, NJ) was used to assess the activation of caspase-3. The purpose of the kit was to measure the early indicator of cells going through apoptosis, known as caspase-3 or the DEVD-cleaving activity. First, 1 × 10^6 cells/mL of cells were resuspended in cold cell lysis buffer, rinsed with PBS, and then allowed to sit on ice for 30 min. […] In each reaction, a well containing 0.2 mL of 1 x HEPES buffer was filled with […] of reconstituted AcDEVD-AMC, a synthetic tetrapeptide fluorogenic substrate for caspase-3 activity. Each reaction/well received 20 μL of cell lysate. The reaction mixtures were incubated at 37 °C for 1 h. Using a microplate reader (Perkin-Elmer/Victor/X3) with an excitation wavelength of 380 nm and an emission wavelength of 460 nm, the amount of AMC released from Ac-DEVD-AMC was quantified. When compared with controls, apoptotic cell lysates containing active caspase-3 produced a significant emission. […] For all doses, duplicate wells were used. This experiment was performed according to Yurttaş et al.[52]

C6 rat glioma cell line = experiment: MTT cell viability / cytotoxicity on C6; type: cell-based; conditions: mean ± S.D. of three determinations
Method: as §2

[5] = test system: L929 murine fibroblast cell line; experiment: MTT cell viability / cytotoxicity on L929 (healthy cells); type: cell-based, mouse; conditions: mean ± S.D. of three determinations
Method: as §1, §2

[6] = Homo sapiens, A549, A549 cell line
[7] = Mus musculus, L929, L929 healthy cell line

T1 sequence (P14780 107-444 limits assumed): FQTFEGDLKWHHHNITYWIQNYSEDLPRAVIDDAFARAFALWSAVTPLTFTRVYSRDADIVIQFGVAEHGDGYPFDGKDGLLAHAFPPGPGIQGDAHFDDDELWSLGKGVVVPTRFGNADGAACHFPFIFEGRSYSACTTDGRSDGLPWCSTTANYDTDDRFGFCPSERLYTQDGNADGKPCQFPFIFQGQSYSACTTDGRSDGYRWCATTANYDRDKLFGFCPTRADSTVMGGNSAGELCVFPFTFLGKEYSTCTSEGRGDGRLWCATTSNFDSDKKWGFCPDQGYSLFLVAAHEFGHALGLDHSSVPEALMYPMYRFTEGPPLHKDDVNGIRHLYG

| IC50 (MMP-9 enzyme) | inhibition at 100 µg/mL (MMP-9 enzyme) | SMILES | mitochondrial membrane depolarization % (A549 cells [1]) | mitochondrial membrane polarization % (A549 cells [1]) | % S (A549 cells [3]) | G0/G1% (A549 cells [3]) | G2/M % (A549 cells [3]) | Q1: necrotic cells (A549 cells [4]) | Q2 + Q4: early and late apoptotic cells (A549 cells [4]) | Q2: late apoptotic cells (A549 cells [4]) | Q4: early apoptotic cells (A549 cells [4]) | % (+): caspase-3 activity positive cells (caspase-3) | % (−): caspase-3 activity negative cells (caspase-3) | IC50 (C6 rat glioma cell line) | IC50 [2, 6] | IC50 [5, 7] | also measured |
| --- | --- | --- | --- | --- | --- | --- | --- | --- | --- | --- | --- | --- | --- | --- | --- | --- | --- |
|  | 40.9 ± 2.54% | COc1ccc(NC(=O)CSc2nnc(COc3ccccc3NC(C)=O)o2)cc1 [Compound 4i, 2-[(5-((2-Acetamidophenoxy)methyl)-1,3,4-oxadiazol-2-yl)thio]-N-(4-methoxyphenyl)acetamide] | 8.84% | 90.51% | 8.09% | 78.78% | 12.14% | 30.12% | 21.54% | 9.75% | 11.79% | 1.9% | 98.2% |  | 1.59 ± 0.44 µM | 14.6 ± 1.59 µM | Q3: viable cells (A549 cells [4]): 48.35% |
| 19.5 ± 3.18 µM | > 50% | CC(=O)Nc1ccccc1OCc1nnc(SCC(=O)Nc2nc3ccc(C)cc3s2)o1 [Compound 4e, 2-[(5-((2-Acetamidophenoxy)methyl)-1,3,4-oxadiazol-2-yl)thio]-N-(6-methylbenzothiazol-2-yl)acetamide] |  |  |  |  |  |  |  |  |  |  |  | 458 ± 28.2 µM | 43 ± 2.79 µM | 29.9 ± 3.01 µM | SI (L929/A549) [2]: 0.69; melting point: 213 to 216 °C |
| 7.1 ± 1.27 µM | > 75% | CCOc1ccc2nc(NC(=O)CSc3nnc(COc4ccccc4NC(C)=O)o3)sc2c1 [Compound 4g, 2-[(5-((2-Acetamidophenoxy)methyl)-1,3,4-oxadiazol-2-yl)thio]-N-(6-ethoxybenzothiazol-2-yl)acetamide] |  |  |  |  |  |  |  |  |  |  |  | 8.16 ± 0.24 µM | < 7.82 µM | < 7.96 µM | inhibition of A549 at the lowest concentration tested ([2]; A549, MTT, lowest concentration tested): greater than 50%; SI (L929/A549) [2]: <1; IC50 ([5]; L929 healthy cell line): < 7.82 µM; melting point: 208 to 212 °C |
| 2.55 ± 0.66 µM | > 75% | CC(=O)Nc1ccccc1OCc1nnc(SCC(=O)Nc2ccc(F)cc2)o1 [Compound 4l, 2-[(5-((2-Acetamidophenoxy)methyl)-1,3,4-oxadiazol-2-yl)thio]-N-(4-fluorophenyl)acetamide] | 8.71% | 90.58% | 6.62% | 69.36% | 24.03% | 32.81% | 18.49% | 11.46% | 7.03% | 1.4% | 98.8% | > 1000 µM | 1.8 ± 0.12 µM | 397 ± 10.2 µM | Q3: viable cells (A549 cells [4]): 48.70% |
|  | 48.4 ± 3.56% | CC(=O)Nc1ccccc1OCc1nnc(SCC(=O)Nc2ccc(Cl)cc2)o1 [Compound 4k, 2-[(5-((2-Acetamidophenoxy)methyl)-1,3,4-oxadiazol-2-yl)thio]-N-(4-chlorophenyl)acetamide] | 6.29% | 93.04% | 18.11% | 63.31% | 18.58% | 33.19% | 17.98% | 10.35% | 7.63% | 1.8% | 98.5% | > 1000 µM | 7.48 ± 0.58 µM | 38.2 ± 4.91 µM | Q3: viable cells (A549 cells [4]): 48.83% |

Second part, the compound before the results:

| SMILES | IC50 (MMP-9 enzyme) | inhibition at 100 µg/mL (MMP-9 enzyme) | mitochondrial membrane depolarization % (A549 cells [1]) | mitochondrial membrane polarization % (A549 cells [1]) | % S (A549 cells [3]) | G0/G1% (A549 cells [3]) | G2/M % (A549 cells [3]) | Q1: necrotic cells (A549 cells [4]) | Q2 + Q4: early and late apoptotic cells (A549 cells [4]) | Q2: late apoptotic cells (A549 cells [4]) | Q4: early apoptotic cells (A549 cells [4]) | % (+): caspase-3 activity positive cells (caspase-3) | % (−): caspase-3 activity negative cells (caspase-3) | IC50 (C6 rat glioma cell line) | IC50 [2, 6] | IC50 [5, 7] | also measured |
| --- | --- | --- | --- | --- | --- | --- | --- | --- | --- | --- | --- | --- | --- | --- | --- | --- | --- |
| COc1ccc(S(=O)(=O)N(CC(=O)NO)CC(C)C)cc1 [NNGH, N-isobutyl-N-(4-methoxyphenylsulfonyl)glycyl hydroxamic, reference compound] | 0.0074 ± 0.0002 µM |  |  |  |  |  |  |  |  |  |  |  |  |  |  |  |  |
| N.N.[Cl][Pt][Cl] [cisplatin, reference compound] |  |  | 22.36% | 76.67% | 2.18% | 74.75% | 23.07% | 28.01% | 10.07% | 5.04% | 5.03% | 11.3% | 90.0% |  |  |  | IC50 ([2]; A549 cell line): 4.98 ± 0.66 µM |
| COc1ccc2nc(NC(=O)CSc3nnc(COc4ccccc4NC(C)=O)o3)sc2c1 [Compound 4c, 2-[(5-((2-Acetamidophenoxy)methyl)-1,3,4-oxadiazol-2-yl)thio]-N-(6-methoxybenzothiazol-2-yl)acetamide] |  | 30.6 ± 2.29% |  |  |  |  |  |  |  |  |  |  |  | 22.1 ± 23.7 µM | > 1030 µM | 8.52 ± 0.31 µM | IC50 ([2]; A549 cell line): > 1000 µM |
| CC(=O)Nc1ccccc1OCc1nnc(SCC(=O)Nc2nc3ccc(Cl)cc3s2)o1 [Compound 4b, 2-[(5-((2-Acetamidophenoxy)methyl)-1,3,4-oxadiazol-2-yl)thio]-N-(6-chlorobenzothiazol-2-yl)acetamide] |  | 49.5 ± 1.86% |  |  |  |  |  |  |  |  |  |  |  | 19.9 ± 6.33 µM | 24.5 ± 5.76 µM | < 7.96 µM |  |
| CC(=O)Nc1ccccc1OCc1nnc(SCC(=O)Nc2nc3ccc([N+](=O)[O-])cc3s2)o1 [Compound 4d, 2-[(5-((2-Acetamidophenoxy)methyl)-1,3,4-oxadiazol-2-yl)thio]-N-(6-nitrobenzothiazol-2-yl)acetamide] |  | 27.6 ± 2.01% |  |  |  |  |  |  |  |  |  |  |  | 28.3 ± 12.1 µM | > 1030 µM | < 7.96 µM | IC50 ([2]; A549 cell line): > 1000 µM; IC50 ([5]; L929 healthy cell line): < 7.8 µM |
| CC(=O)Nc1ccccc1OCc1nnc(SCC(=O)Nc2nc3ccccc3s2)o1 [Compound 4a, 2-[(5-((2-Acetamidophenoxy)methyl)-1,3,4-oxadiazol-2-yl)thio]-N-(benzothiazol-2-yl)acetamide] |  | 41.4 ± 1.85% |  |  |  |  |  |  |  |  |  |  |  | 18.5 ± 5.58 µM | 22.3 ± 1.67 µM | 586 ± 22.9 µM | SI (L929/A549) [2]: 26.250; melting point: 189 to 194 °C |
